Source: patent publication US20040067531A1, “Methods of modulating protein tyrosine kinase function with substituted indolinone compounds” (SUGEN, INC., priority 1997, published 2004)
Like-named read-outs stand apart in the source and are kept apart here.

Columns and labels:
HUV-EC-C cells; VEGF = experiment: HUVEC-VEGF 3H-thymidine incorporation assay; assay type: cell-based, human
Description: The following protocol is used to measure a compound's activity against VEGF and aFGF, all of which are expressed by HUVEC cells.
1. […] After cells have detached from the flask, add an equal volume of assay medium and transfer to a 50 mL sterile centrifuge tube (Fisher Scientific; catalogue no. 05-539-6).
2. Wash the cells with about 35 mL assay medium in the 50 mL sterile centrifuge tube by adding the assay medium, centrifuge for 10 minutes at approximately 200×g, aspirate the supernatant, and resuspend with 35 mL D-PBS. Repeat the wash two more times with D-PBS, resuspend the cells in about 1 mL assay medium/15 cm^2 of tissue culture flask. Assay medium consists of F12K medium (Gibco BRL; catalogue no. 21127-014)+0.5% heat-inactivated fetal bovine serum. Count the cells with a Coulter Counter® (Coulter Electronics, Inc.) and add assay medium to the cells to obtain a concentration of 0.8-1.0×10^5 cells/mL.
3. Add cells to 96-well flat-bottom plates at 100 μL/well or 0.8-1.0×10^4 cells/well; incubate ˜24h at 37° C., 5% CO^2.
1. Make up two-fold drug titrations in separate 96-well plates, generally 50 μM on down to 0 μM. Use the same assay medium as mentioned in day 0, step 2 above. Titrations are made by adding […] of drug at 200 μM (4× the final well concentration) to the top well of a particular plate column. Since the stock drug concentration is usually 20 mM in DMSO, the 200 μM drug concentration contains 2% DMSO.
Therefore, diluent made up to 2% DMSO in assay medium (F12K+0.5% fetal bovine serum) is used as diluent for the drug titrations in order to dilute the drug but keep the DMSO concentration constant. Add this diluent to the remaining wells in the column at 60 μL/well. Take 60 μL from the 120 μL of 200 μM drug dilution in the top well of the column and mix with the 60 μL in the second well of the column. Take 60 μL from this well and mix with the 60 μL in the third well of the column, and so on until two-fold titrations are completed. When the next-to-the-last well is mixed, take 60 μL of the 120 μL in this well and discard it. Leave the last well with 60 μL of DMSO/media diluent as a non-drug-containing control. Make 9 columns of titrated drug, enough for triplicate wells each for 1) VEGF (obtained from Pepro Tech Inc., catalogue no. 100-200, 2) endothelial cell growth factor (ECGF) (also known as acidic fibroblast growth factor, or aFGF) (obtained from Boehringer Mannheim Biochemica, catalogue no. 1439 600); or, 3) human PDGF B/B (1276-956, Boehringer Mannheim, Germany) and assay media control. ECGF comes as a preparation with sodium heparin.
2. Transfer 50 μL/well of the drug dilutions to the 96-well assay plates containing the 0.8-1.0×10^4 cells/100 μL/well of the HUV-EC-C cells from day 0. and incubate ˜2 h at 37° C., 5% CO2.
3. […] As with the drugs, the growth factor concentrations are 4× the desired final concentration. Use the assay media from day 0 step 2 to make the concentrations of growth factors. Incubate approximately 24 hours at 37° C., 5% CO2. Each well will have 50 μL drug dilution, 50 μL growth factor or media, and 100 μL cells, =200 μL/well total. Thus the 4× concentrations of drugs and growth factors become 1× once everything has been added to the wells.
1. Add ^3H-thymidine (Amersham; catalogue no. TRK-686) at 1 μCi/well (10 μL/well Of 100 μCi/mi solution made up in RPMI media +10% heat-inactivated fetal bovine serum) and incubate μ24 h at 37° C., 5% CO2. RPMI was obtained from Gibco BRL, catalogue no. 11875-051.
1. Freeze plates overnight at […]
1. Thaw plates and harvest with a 96-well plate harvester (Tomtec Harvester 96®) onto filter mats (Wallac; catalogue no. 1205-401); read counts on a Wallac Betaplate™ liquid scintillation counter.
The IC50 values were measured for several of the compounds of the invention.

[1] = tested on: FGF-induced BrdU incorporation; experiment: FGF-induced BrdU incorporation assay; assay type: cell-based; details: read-out: FGF-Induced BrdU Incorp. IC50
Description: (§1) PDGF-, FGF-, and EGF-Induced BRDU Incorporation Assay
(§2) 1. Cells were seeded at 8000 cells/well in DMEM, 10% CS, 2 mM Gln in a 96 well plate. Cells were incubated overnight at 37° C. in 5% CO2.
(§3) 2. After 24 hours, the cells were washed with PBS, and then were serum starved in serum free medium (0% CS DMEM with 0.1% BSA) for 24 hours.
(§4) 3. On day 3, ligand (PDGF=3.8 nM, prepared in DMEM with 0.1% BSA) and test compounds were added to the cells simultaneously. The negative control wells received serum free DMEM with 0.1% BSA only; the positive control cells received the ligand (PDGF) but no test compound. Test compounds were prepared in serum free DMEM with ligand in a 96 well plate, and serially diluted for 7 test concentrations.
(§5) 4. After 20 hours of ligand activation, diluted BrdU labeling reagent (1:100 in DMEM, 0.1% BSA) was added and the cells were incubated with BrdU (final concentration=10 μM) for 1.5 hours.
(§6) 5. After incubation with labeling reagent, the medium was removed by decanting and tapping the inverted plate on a paper towel. FixDenat solution was added (50 μL/well) and the plates were incubated at room temperature for 45 minutes on a plate shaker.
(§7) 6. The FixDenat solution was thoroughly removed by decanting and tapping the inverted plate on a paper towel. Milk was added (5% dehydrated milk in PBS, 200 μL/well) as a blocking solution and the plate was incubated for 30 minutes at room temperature on a plate shaker.
(§8) 7. The blocking solution was removed by decanting and the wells were washed once with PBS. Anti-BrdU-POD solution (1:100 dilution in PBS, 1% BSA) was added (100 μL/well), and the plate was incubated for 90 minutes at room temperature on a plate shaker.
(§9) 8. The antibody conjugate was thoroughly removed by decanting and rinsing the wells 5 times with PBS, and the space was dried by inverting and tapping on a paper towel.
(§10) 9. TMB substrate solution was added (100 μL/well) and incubated for 20 minutes at room temperature on a plate shaker until color development was sufficient for photometric detection.
(§11) 10. The absorbance of the samples were measured at 410 nm (in “dual wavelength” mode with a filter reading at 490 nm, as a reference wavelength) on a Dynatech ELISA plate reader.
(§12) The IC50 values were measured for several of the compounds of the invention. These values are depicted in Table 10.

[2] = tested on: EGF-induced BrdU incorporation; experiment: EGF-induced BrdU incorporation assay; assay type: cell-based; details: read-out: EGF-Induced BrdU Incorp. IC50
Description: as §1, §2, §3, §4, §5, §6, §7, §8, §9, §10, §11, §12

[3] = tested on: 3T3 cell line genetically engineered to express human PDGF-R; experiment: PDGF-induced BrdU incorporation assay; assay type: cell-based; details: 3T3 cells expressing human PDGF-R, read-out: PDGF-Induced BrdU Incorp. IC50
Description: (1) PDGF: human PDGF B/B; 1276-956, Boehringer Mannheim, Germany
(8) 3T3 cell line genetically engineered to express human PDGF-R.
as §2, §3, §4, §5, §6, §7, §8, §9, §10, §11, §12

SMILES	IC50 (HUV-EC-C cells; VEGF; Homo sapiens)	IC50 [1]	IC50 [2]	IC50 ([3]; NIH3T3, PDGF 3.8 nM)	IC50 (HUV-EC-C cells; VEGF)	IC50 ([1]; FGF-induced)	IC50 ([2]; EGF-induced)	IC50 ([3]; PDGF […])
CN(C)CCCc1c(C=C2C(=O)Nc3ccccc32)[nH]c2c1CCCC2 [IN-009, 3-[3-(3-Dimethylamino-propyl)-4,5,6,7-tetrahydro-1H-indol-2-ylmethylene]-1,3-dihydro-indol-2-one]	290 nM	> 50 µM	> 50 µM	4.2 µM	–	–	–	–
O=C(O)CCc1c(C=C2C(=O)Nc3ccc(Cl)cc32)[nH]c2c1CCCC2 [IN-002, 3-[2-(5-Chloro-2-oxo-1,2-dihydro-indol-3-ylidenemethyl)-4,5.6,7-tetrahydro-1H-indol-3-yl]-propionic acid]	–	–	–	–	0.04 nM	23.6 µM	83.5 µM	1.1 µM
Cc1c[nH]c(C=C2C(=O)Nc3ccc(Br)cc32)c1CCC(=O)O [IN-031, 3-[2-(5-Bromo-2-oxo-1,2-dihydro-indol-3-ylidenemethyl)-4-methyl-1H-pyrrol-3-yl]-propionic acid]	40 nM	> 50 µM	> 50 µM	8.5 µM	–	–	–	–
Cc1c[nH]c(C=C2C(=O)Nc3cc(Cl)ccc32)c1CCC(=O)O [IN-030, 3-[2-(6-Chloro-2-oxo-1,2-dihydro-indol-3-ylidenemethyl)-4-methyl-1H-pyrrol-3-yl]-propionic acid]	16 nM	> 50 µM	> 50 µM	7.9 µM	–	–	–	–
O=C1Nc2ccccc2C1=Cc1[nH]c2c(c1CCC(=O)N1CCOCC1)CCCC2 [IN-011, 3-[3-(3-Morpholin-4-yl-3-oxo-propyl)-4,5 6,7-tetrahydro-1H-indol-2-ylmethylene]-1,3-dihydro-indol-2-one]	220 nM	> 50 µM	83.5 µM	8.6 µM	–	–	–	–
Cc1ccc2c(c1)C(=Cc1[nH]c3c(c1CCC(=O)O)CCCC3)C(=O)N2 [IN-005, 3-[2-(5-Methyl-2-oxo-1,2-dihydro-indol-3-ylidenemethyl)-4,5,6,7-tetrahydro-1H-indol-3-yl]-propionic acid]	1 nM	30.1 µM	61.5 µM	14.2 µM	–	–	–	–
COc1ccc2c(c1)NC(=O)C2=Cc1[nH]cc(C)c1CCC(=O)O [IN-028, 3-[2-(6-Methoxy-2-oxo-1,2-dihydro-indol-3-ylidenemethyl)-4-methyl-1H-pyrrol-3-yl]-propionic acid]	620 nM	> 50 µM	> 50 µM	8.7 µM	–	–	–	–
O=C(O)CCc1c(C=C2C(=O)Nc3ccccc32)[nH]c2c1CCCC2 [IN-001, 3-[2-(2-Oxo-1,2-dihydro-indol-3-ylidenemethyl)-4,5,6,7-tetrahydro-1H-indol-3-yl]-propionic acid]	1.9 nM	18.2 µM	95.4 µM	2.9 µM	–	–	–	–
Cc1c[nH]c(C=C2C(=O)Nc3ccccc32)c1CCC(=O)O [IN-026, 3-[4-Methyl-2-(2-oxo-1,2-dihydro-indol-3-ylidenemethyl)-1H-pyrrol-3-yl]-propionic acid]	–	25 µM	> 100 µM	20 µM	–	–	–	–
O=C(CCc1c(C=C2C(=O)Nc3ccccc32)[nH]c2c1CCCC2)NCCN1CCOCC1 [IN-013, N-(2-Morpholin-4-yl-ethyl)-3-[2-(2-oxo-1,2-dihydro-indol-3-ylidenemethyl)-4,5,6,7-tetrahydro-1H-indol-3-yl]-propionamide]	< 30 nM	> 50 µM	52 µM	5.2 µM	–	–	–	–
Cc1c[nH]c(C=C2C(=O)Nc3ccc(Cl)cc32)c1CCC(=O)O [IN-027, 3-[2-(5-Chloro-2-oxo-1,2-dihydro-indol-3-ylidenemethyl)-4-methyl-1H-pyrrol-3-yl]-propionic acid]	< 70 nM	–	> 50 µM	–	–	–	–	–
CNC(=O)CCc1c(C=C2C(=O)Nc3ccccc32)[nH]c2c1CCCC2 [IN-012, N-Methyl-3-[2-(2-oxo-1,2-dihydro-indol-3-ylidenemethyl)-4,5,6,7-tetrahydro-1H-indol-3-yl]-propionamide]	< 30 nM	> 50 µM	78.5 µM	3.9 µM	–	–	–	–
Cc1cccc2c1C(=Cc1[nH]c3c(c1CCC(=O)O)CCCC3)C(=O)N2 [IN-004, 3-[2-(4-Methyl-2-oxo-1,2-dihydro-indol-3-ylidenemethyl)-4,5,6,7-tetrahydro-1H-indol-3-yl]-propionic acid]	0.94 nM	26.7 µM	52 µM	13.5 µM	–	–	–	–
O=C(O)CCc1c(C=C2C(=O)Nc3ccc(Br)cc32)[nH]c2c1CCCC2 [IN-003, 3-[2-(5-Bromo-2-oxo-1,2-dihydro-indol-3-ylidenemethyl)-4,5,6,7-tetrahydro-1H-indol-3-yl]-propionic acid]	0.3 nM	15.7 µM	78.5 µM	1.4 µM	–	–	–	–
Cc1c[nH]c(C=C2C(=O)Nc3cccc(C)c32)c1CCC(=O)O [IN-029, 3-[2-(4-Methyl-2-oxo-1,2-dihydro-indol-3-ylidenemethyl)-4-methyl-1H-pyrrol-3-yl]-propionic acid]	< 70 nM	> 50 µM	–	24.8 µM	–	–	43.5 µM	–
CN(C)C(=O)CCc1c(C=C2C(=O)Nc3ccccc32)[nH]c2c1CCCC2 [IN-008, N,N-Dimethyl-3-[2-(2-oxo-1,2-dihydro-indol-3-ylidenemethyl)-4,5,6,7-tetrahydro-1H-indol-3-yl]-propionamide]	< 3 nM	> 50 µM	> 50 µM	4.9 µM	–	–	–	–
